# Reference: patent US10888608B2, “Costimulation of chimeric antigen receptors by MyD88 and CD40 polypeptides” (BELLICUM PHARMACEUTICALS, INC., priority 2014, dated 2021)
# Positions count from the first letter of the chain named. Numbers in names are those of the source. Like-named read-outs stand apart in the source and are kept apart here.
# B1: N405Q-S144Aco: Caspase-9 double mutant, class predicted (protein, UniProt P55211 1-416, looked up, variant N405Q S144A)
# chain: MDEADRRLLRRCRLRLVEELQVDQLWDALLSRELFRPHMIEDIQRAGSGSRRDQARQLIIDLETRGSQALPLFISCLEDTGQDMLASFLRTNRQAAKLSKPTLENLTPVVLRPEIRKPEVLRPETPRPVDIGSGGFGDVGALEALRGNADLAYILSMEPCGHCLIINNVNFCRESGLRTRTGSNIDCEKLRRRFSSLHFMVEVKGDLTAKKMVLALLELAQQDHGALDCCVVVILSHGCQASHLQFPGAVYGTDGCPVSVEKIVNIFNGTSCPSLGGKPKLFFIQACGGEQKDHGFEVASTSPEDESPGSNPEPDATPFQEGLRTFDQLDAISSLPTPSDIFVSYSTFPGFVSWRDPKSGSWYVETLDDIFEQWAHSEDLQSLLLRVANAVSVKGIYKQMPGCFQFLRKKLFFKTS
# modifications: codon optimized
# notes: Caspase-9 double mutant, class predicted
# B2: N405Q-T317Sco: Caspase-9 double mutant, class predicted (protein, UniProt P55211 1-416, looked up, variant N405Q T317S)
# chain: B1 chain with A144S, T317S
# modifications: codon-optimized
# notes: as for B1
# Tests used:
# cells = assay: AP1903 amount needed in vitro for effective signaling of cells; type: cell-based
# Procedure: The fixed dose of AP1903 for injection used, for example, may be 0.4 mg/kg intravenously infused over 2 hours. The amount of AP1903 needed in vitro for effective signaling of cells is about 10-100 nM (MW: 1412 Da). This equates to 14-140 μg/L or ˜0.014-0.14 mg/kg ([…]). The dosage may vary according to the application, and may, in certain examples, be more in the range of 0.1-10 nM, or in the range of 50-150 nM, 10-200 nM, 75-125 nM, 100-500 nM, 100-600 nM, 100-700 nM, 100-800 nM, or 100-900 nM. Doses up to 1 mg/kg were well-tolerated in the Phase I study of AP1903 provided above.
# CD3^+ ΔCD19^+ cells = assay: Phase I clinical trial: iCasp9^+ allodepleted T cells after haplo-CD34^+ stem cell transplantation, AP1903 given for GvHD; type: in vivo, human
# Text: This example presents results of a phase 1 clinical trial using an alternative suicide gene strategy. Briefly, donor peripheral blood mononuclear cells were co-cultured with recipient irradiated EBV-transformed lymphoblastoid cells (40:1) for 72 hrs., allodepleted with a CD25 immunotoxin and then transduced with a retroviral supernatant carrying the iCasp9 suicide gene and a selection marker (ΔCD19); ΔCD19 allowed enrichment to >90% purity via immunomagnetic selection.
# Patients developing grade 1 GvHD were treated with 0.4 mglkg AP1903 as a 2-hour infusion. Protocols for administration of AP1903 to patients grade 1 GvHD were established as follows. Patients developing GvHD after infusion of allodepleted T cells are biopsied to confirm the diagnosis and receive 0.4 mg/kg of AP1903 as a 2 h infusion. […] Patients developing grades 2-4 GvHD were administered standard systemic immunosuppressive therapy per institutional guidelines, in addition to the AP1903 dimerizer drug.
# Three patients received iCasp9^+ T cells after haplo-CD34^+ stem cell transplantation (SCT), at dose levels between about 1×10^6 to about 3×10^6 cells/kg.
# [1] = system: iC9-CD19.ζ-MC CAR-modified T cells; assay: Raji tumor NSG mouse model with iC9-CD19.ζ-MC CAR T cells and rimiducid (Example 19); type: in vivo, mice
# Procedure: FIG. 40A-FIG. 40C provide results of the enhancement of CD19 CAR-T cell efficacy in vivo by the MyD88/CD40 chimeric costimulatory molecule using the constructs of FIG. 37A-FIG. 37E. FIG. 40A: NSG mice (n=5 per group) were engrafted with Raji-luciferase tumor cells and then treated with non-transduced (NT) or iC9-CD19.ζ-MC CAR-modified T cells on day 3. Tumor growth was measured by IVIS imaging and calculated by whole-body BLI, as shown in photos. FIG. 40B provides a graph of bioluminescent counts (BLI counts) and FIG. 40C provides a graph of (Kaplan-Meier analysis from (A)).
# FIG. 41A-FIG. 41C provide results of assays of the titration of inducible chimeric Caspase-9 expressing cells, using the constructs of FIG. 37A-FIG. 37E, with rimiducid. FIG. 41A and FIG. 41B: NSG mice (n=5 per group) were engrafted with CD19^+ Raji lymphoma cells and treated with 5×10^6 iC9-CD19.ζ-MC/luciferase-transduced T cells at day 3. After 6 days, mice were treated i.p. with log dilutions of rimiducid (0.00005-5 mg/kg). BLI of CAR-T cells was assessed prior to rimiducid treatment and at 24 and 48 hours post-injection. […] FIG. 41C provides graphs of serum cytokine levels, which were measured from each group before (black line) and 24 hours post-administration (gray line) of rimiducid. *P-value=<0.01.
# 5×10^5 Raji tumor cells were injected i.v. into NSG mice. On day 3, CD19 CAR-modified T cells were injected i.v. and bioluminescence (BLI) was measured for either tumor or T cells on a weekly basis by IVIS imaging. […]
# FIG. 40 provides the results of mouse in vivo efficacy assays using the various CD19-specific CAR constructs. […] Tumor growth was measured by IVIS imaging and calculated by whole-body BLI (B). […]
# FIG. 41 provides the results of mouse in vivo assays including CD19-specific CAR constructs and the Caspase-9 safety switch. […] BLI of CAR-T cells was assessed prior to rimiducid treatment and at 24 and 48 hours post-injection. C) Serum cytokine levels were measured from each group before (black line) and 24 hours post-administration (orange line) of rimiducid. *P-value=<0.01.
# [2] = cited from earlier work
# Caspase-9 = assay: Caspase mutant classes: basal activity and ligand IC50; parameters: species or system human; settings: mutants marked *, predicted
# Text: Modified Caspase-9 Polypeptides with Lower Basal Activity and Minimal Loss of Ligand IC50
# Even though homo-dimerization of wild-type initiator Caspase-9 is energetically unfavorable, making them mostly monomers in solution [14-16], the low-level inherent basal activity of unprocessed Caspase-9 [15, 17] is enhanced in the presence of the Apaf-1-based “apoptosome”, its natural allosteric regulator [6]. Moreover, supra-physiological expression levels and/or co-localization could lead to proximity-driven dimerization, further enhancing basal activation. The modified cells of the present application may comprise nucleic acids coding for a chimeric Caspase-9 polypeptide having lower basal signaling activity. Polynucleotides comprising Caspase-9 mutants with lower basal signaling may be expressed in the modified cells used for cell therapy herein. […] In some examples, the amount of dimerizer administered may be determined as an amount designed to remove the highest amount, at least 80% or 90% of the modified cells. In other examples, the amount of dimerizer administered may be determined as an amount designed to remove only a portion of the modified cells, in order to alleviate negative symptoms or conditions, while leaving a sufficient amount of therapeutic modified cells in the patient, in order to continue therapy. […]
# [3] = rimiducid administered at objective evidence of sCRS
Basal Activity (Caspase-9),Molecule,amount needed in vitro for effective signaling of cells (cells),time to resolution of skin and liver aGvHD (CD3^+ ΔCD19^+ cells; after AP1903 administration),"ablation of CD3^+ ΔCD19^+ cells (CD3^+ ΔCD19^+ cells; within 30 minutes of infusion, patients with grade I/II aGvHD)",further reduction of CD3^+ ΔCD19^+ cells (CD3^+ ΔCD19^+ cells; within 24 hours),"CAR T cell elimination on titration ([1]; iCaspase-9 safety switch, titrated rimiducid)","resolution of clinical sCRS [1, 3]","time to normalization of cytokines [1, 3]",plasma levels versus dose ([2]; 0.01-1.0 mg/kg),"plasma levels, % of maximal concentration ([2]; 2 hours post-dose)","plasma levels, % of maximal concentration ([2]; 10 hours post-dose)",serious adverse events ([2]; Phase 1 study in volunteers),severity of adverse events ([2]; Phase 1 study in volunteers),doses well-tolerated ([2]; Phase I study),mean Cmax / plasma concentrations ([2]; single doses 0.01-1.0 mg/kg infused IV over 2 hours),"adverse events possibly related to AP1903 ([2]; vasodilatation (facial flushing), 1 volunteer at 1.0 mg/kg)"
–,"CC[C@H](C(=O)N1CCCC[C@H]1C(=O)O[C@H](CCc1ccc(OC)c(OC)c1)c1cccc(OCC(=O)NCCNC(=O)COc2cccc([C@@H](CCc3ccc(OC)c(OC)c3)OC(=O)[C@@H]3CCCCN3C(=O)[C@@H](CC)c3cc(OC)c(OC)c(OC)c3)c2)c1)c1cc(OC)c(OC)c(OC)c1 (relative stereo) [AP1903, 2-Piperidinecarboxylic acid, 1-[(2S)-1-oxo-2-(3,4,5-trimethoxyphenyl)butyl]-, 1,2-ethanediylbis [imino(2-oxo-2,1-ethanediyl)oxy-3,1-phenylene[(1R)-3-(3,4-dimethoxyphenyl)propylidene]] ester, [2S-[1(R*),2R*[S*[S*[1(R*),2R*]]]]]-(9Cl)]",10 to 100 nM,≤ 24 h,> 90%,further log reduction,partial T cell elimination that still preserved CAR-T cell function,complete resolution of clinical sCRS without compromising tumor control,≤ 24 h,directly proportional to dose,~7%,~1%,No serious adverse events occurred,mild in severity,up to 1 mg/kg,10 to 1275 ng/mL,Only one adverse event was considered possibly related to AP1903
Decreased,B1,–,–,–,–,–,–,–,–,–,–,–,–,–,–,–
Decreased,B2,–,–,–,–,–,–,–,–,–,–,–,–,–,–,–
